Reference: US9469650B2, “Melampomagnolide B derivatives” (BOARD OF TRUSTEES OF THE UNIVERSITY OF ARKANSAS, priority 2013, dated 2016)
Like-named read-outs stand apart in the source and are kept apart here.

What was measured:
SNB-19 = assay: panel of 60 human tumor cell lines, growth inhibition (CNS Cancer)
HS 578T = assay: panel of 60 human tumor cell lines, growth inhibition (Breast Cancer); settings: for Percent Growth: HS 578T
DU-145 = assay: panel of 60 human tumor cell lines, growth inhibition (Prostate Cancer)
786-0 = assay: panel of 60 human tumor cell lines, growth inhibition (Renal Cancer)
NCI-H226 = assay: panel of 60 human tumor cell lines, growth inhibition (Non-Small Cell Lung Cancer)
NCI-H460 = assay: as above
IGROV1 = assay: panel of 60 human tumor cell lines, growth inhibition (Ovarian Cancer); settings: for Percent Growth: IGROVI
U251 = assay: panel of 60 human tumor cell lines, growth inhibition (CNS Cancer); settings: for Percent Growth: U251
HOP-62 = assay: panel of 60 human tumor cell lines, growth inhibition (Non-Small Cell Lung Cancer); settings: HOP-62

Question: Which GI50 (SNB-19; Homo sapiens, SNB-19) does the source give for `C=C1C(=O)O[C@H]2[C@H]1CC/C(COC(=O)CCC(=O)NCc1ccc(Cl)nc1)=C\CC[C@@]1(C)O[C@@H]21` [JVM 96] here?
Answer: Its GI50 is 15.6 µM.

Question: And the CC50 (SNB-19; Homo sapiens, SNB-19, read-out: LC50)?
Answer: The CC50 was > 100 µM.

Question: What about the IC (TGI) (SNB-19; Homo sapiens, SNB-19, read-out: TGI) of the same compound?
Answer: Its IC (TGI) is 42.3 µM.

Question: And the “Percent Growth” value (SNB-19; SNB-19, Log10 Concentration −4.0)?
Answer: The value was −43%.

Question: What about the “Percent Growth” value (SNB-19; SNB-19, Log10 Concentration −5.0) of the same compound?
Answer: The value was 72%.

Question: What about the “Percent Growth” value (SNB-19; SNB-19, Log10 Concentration −6.0) of the same compound?
Answer: Its value is 88%.

Question: What about the “Percent Growth” value (SNB-19; SNB-19, Log10 Concentration −7.0) of the same compound?
Answer: The value was 96%.

Question: What about the “Percent Growth” value (SNB-19; SNB-19, Log10 Concentration −8.0) of the same compound?
Answer: The value was 93%.

Question: And the “Percent Growth” value (HS 578T; Log10 Concentration −4.0)?
Answer: Its value is −5%.

Question: And the “Percent Growth” value (HS 578T; Log10 Concentration −5.0)?
Answer: The value was 61%.

Question: And the “Percent Growth” value (HS 578T; Log10 Concentration −6.0)?
Answer: The value was 94%.

Question: And the “Percent Growth” value (HS 578T; Log10 Concentration −7.0)?
Answer: Its value is 101%.

Question: What about the “Percent Growth” value (HS 578T; Log10 Concentration −8.0) of the same compound?
Answer: Its value is 95%.

Question: What about the GI50 (HS 578T; Homo sapiens, Hs-578T) of the same compound?
Answer: Its GI50 is 14.7 µM.

Question: And the CC50 (HS 578T; Homo sapiens, Hs-578T, read-out: LC50)?
Answer: The CC50 was > 100 µM.

Question: What about the IC (TGI) (HS 578T; Homo sapiens, Hs-578T, read-out: TGI) of the same compound?
Answer: The IC (TGI) was 63.7 µM.

Question: And the “Percent Growth” value (DU-145; DU-145, Log10 Concentration −4.0)?
Answer: Its value is −97%.

Question: And the “Percent Growth” value (DU-145; DU-145, Log10 Concentration −5.0)?
Answer: Its value is 16%.

Question: What about the “Percent Growth” value (DU-145; DU-145, Log10 Concentration −6.0) of the same compound?
Answer: Its value is 98%.

Question: What about the “Percent Growth” value (DU-145; DU-145, Log10 Concentration −7.0) of the same compound?
Answer: The value was 106%.

Question: And the “Percent Growth” value (DU-145; DU-145, Log10 Concentration −8.0)?
Answer: The value was 99%.

Question: What about the GI50 (DU-145; Homo sapiens, DU-145) of the same compound?
Answer: The GI50 was 3.84 µM.

Question: And the CC50 (DU-145; Homo sapiens, DU-145, read-out: LC50)?
Answer: Its CC50 is 38.4 µM.

Question: And the IC (TGI) (DU-145; Homo sapiens, DU-145, read-out: TGI)?
Answer: The IC (TGI) was 13.9 µM.

Question: What about the “Percent Growth” value (786-0; 786-0, Log10 Concentration −4.0) of the same compound?
Answer: The value was −91%.

Question: And the “Percent Growth” value (786-0; 786-0, Log10 Concentration −5.0)?
Answer: Its value is 26%.

Question: And the “Percent Growth” value (786-0; 786-0, Log10 Concentration −6.0)?
Answer: The value was 94%.

Question: And the “Percent Growth” value (786-0; 786-0, Log10 Concentration −7.0)?
Answer: Its value is 92%.

Question: And the “Percent Growth” value (786-0; 786-0, Log10 Concentration −8.0)?
Answer: The value was 94%.

Question: And the GI50 (786-0; Homo sapiens, 786-0)?
Answer: The GI50 was 4.43 µM.

Question: What about the CC50 (786-0; Homo sapiens, 786-0, read-out: LC50) of the same compound?
Answer: The CC50 was 44.4 µM.

Question: What about the IC (TGI) (786-0; Homo sapiens, 786-0, read-out: TGI) of the same compound?
Answer: Its IC (TGI) is 16.6 µM.

Question: What about the GI50 (NCI-H226; Homo sapiens, NCI-H226) of the same compound?
Answer: The GI50 was 12.7 µM.

Question: What about the IC (TGI) (NCI-H226; Homo sapiens, NCI-H226, read-out: TGI) of the same compound?
Answer: Its IC (TGI) is 32 µM.

Question: And the “Percent Growth” value (NCI-H226; NCI-H226, Log10 Concentration −4.0)?
Answer: The value was −61%.

Question: What about the “Percent Growth” value (NCI-H226; NCI-H226, Log10 Concentration −5.0) of the same compound?
Answer: The value was 63%.

Question: And the “Percent Growth” value (NCI-H226; NCI-H226, Log10 Concentration −6.0)?
Answer: The value was 94%.

Question: What about the “Percent Growth” value (NCI-H226; NCI-H226, Log10 Concentration −7.0) of the same compound?
Answer: Its value is 97%.

Question: What about the “Percent Growth” value (NCI-H226; NCI-H226, Log10 Concentration −8.0) of the same compound?
Answer: The value was 96%.

Question: What about the GI50 (NCI-H460; Homo sapiens, NCI-H460) of the same compound?
Answer: The GI50 was 21.3 µM.

Question: What about the CC50 (NCI-H460; Homo sapiens, NCI-H460, read-out: LC50) of the same compound?
Answer: Its CC50 is > 100 µM.

Question: And the IC (TGI) (NCI-H460; Homo sapiens, NCI-H460, read-out: TGI)?
Answer: The IC (TGI) was 53.9 µM.

Question: And the “Percent Growth” value (NCI-H460; NCI-H460, Log10 Concentration −4.0)?
Answer: The value was −33%.

Question: And the “Percent Growth” value (NCI-H460; NCI-H460, Log10 Concentration −5.0)?
Answer: The value was 91%.

Question: And the “Percent Growth” value (NCI-H460; NCI-H460, Log10 Concentration −6.0)?
Answer: Its value is 101%.

Question: What about the “Percent Growth” value (NCI-H460; NCI-H460, Log10 Concentration −7.0) of the same compound?
Answer: Its value is 102%.

Question: What about the “Percent Growth” value (NCI-H460; NCI-H460, Log10 Concentration −8.0) of the same compound?
Answer: Its value is 102%.

Question: And the GI50 (IGROV1; Homo sapiens, IGROV-1)?
Answer: Its GI50 is 16.7 µM.

Question: And the CC50 (IGROV1; Homo sapiens, IGROV-1, read-out: LC50)?
Answer: Its CC50 is 95.5 µM.

Question: What about the IC (TGI) (IGROV1; Homo sapiens, IGROV-1, read-out: TGI) of the same compound?
Answer: Its IC (TGI) is 39.9 µM.

Question: What about the “Percent Growth” value (IGROV1; Log10 Concentration −4.0) of the same compound?
Answer: Its value is −53%.

Question: And the “Percent Growth” value (IGROV1; Log10 Concentration −5.0)?
Answer: Its value is 79%.

Question: And the “Percent Growth” value (IGROV1; Log10 Concentration −6.0)?
Answer: Its value is 107%.

Question: What about the “Percent Growth” value (IGROV1; Log10 Concentration −7.0) of the same compound?
Answer: The value was 106%.

Question: And the “Percent Growth” value (IGROV1; Log10 Concentration −8.0)?
Answer: The value was 107%.

Question: What about the GI50 (U251; Homo sapiens, U-251) of the same compound?
Answer: Its GI50 is 16.7 µM.

Question: What about the CC50 (U251; Homo sapiens, U-251, read-out: LC50) of the same compound?
Answer: The CC50 was 64.5 µM.

Question: What about the IC (TGI) (U251; Homo sapiens, U-251, read-out: TGI) of the same compound?
Answer: The IC (TGI) was 32.8 µM.

Question: And the “Percent Growth” value (U251; Log10 Concentration −4.0)?
Answer: Its value is −82%.

Question: And the “Percent Growth” value (U251; Log10 Concentration −5.0)?
Answer: Its value is 88%.

Question: And the “Percent Growth” value (U251; Log10 Concentration −6.0)?
Answer: The value was 99%.

Question: And the “Percent Growth” value (U251; Log10 Concentration −7.0)?
Answer: The value was 93%.

Question: And the “Percent Growth” value (U251; Log10 Concentration −8.0)?
Answer: Its value is 92%.

Question: What about the “Percent Growth” value (HL-60(TB); Log10 Concentration −4.0) of the same compound?
Answer: The value was −48%.

Question: What about the “Percent Growth” value (HL-60(TB); Log10 Concentration −5.0) of the same compound?
Answer: Its value is −5%.

Question: And the “Percent Growth” value (HL-60(TB); Log10 Concentration −6.0)?
Answer: The value was 76%.

Question: What about the “Percent Growth” value (HL-60(TB); Log10 Concentration −7.0) of the same compound?
Answer: The value was 78%.

Question: What about the “Percent Growth” value (HL-60(TB); Log10 Concentration −8.0) of the same compound?
Answer: The value was 91%.

Question: And the “Percent Growth” value (HOP-62; Log10 Concentration −4.0)?
Answer: The value was −53%.

Question: And the “Percent Growth” value (HOP-62; Log10 Concentration −5.0)?
Answer: The value was 95%.
